Patent publication US20260070945A1, “MACROCYCLIC IMMUNOMODULATORS” (Bristol-Myers Squibb Company, priority 2022, published 2026)
Where a SMILES comes first, the peptide text is derived from it. Bridges are numbered along the chain shown (N, C = ends). [ ]: non-standard residue; d: D form. The star is where a group is joined. ξ: configuration not given here. X4 = NCC[C@H](NC(=O)CNCCNCCN*)C(=O)NCCCCCCCCCCC(=O)O; Phe(4-COOH) = N[C@@H](Cc1ccc(C(=O)O)cc1)C(=O)O; Bip = N[C@@H](Cc1ccc(-c2ccccc2)cc1)C(=O)O; Phe(3-Me) = Cc1cccc(C[C@H](N)C(=O)O)c1; NH(CH2)12COOH = O=C(O)CCCCCCCCCCCCN*; Val(3-OH) = CC(C)(O)[C@H](N)C(=O)O; dAla(cPr) = N[C@H](CC1CC1)C(=O)O; hArg = N=C(N)NCCCC[C@H](N)C(=O)O; 4Pal = N[C@@H](Cc1ccncc1)C(=O)O; Cha = N[C@@H](CC1CCCCC1)C(=O)O; Ile(3ξ) = CCC(C)[C@H](N)C(=O)O; Thr(3ξ) = CC(O)[C@H](N)C(=O)O; Carboxymethyl = O=C(O)C*; NMeA = CN[C@@H](C)C(=O)O; Orn = NCCC[C@H](N)C(=O)O; Aun = NCCCCCCCCCCC(=O)O; Dab = NCC[C@H](N)C(=O)O; Dap = NC[C@H](N)C(=O)O; AEEA = NCCOCCOCC(=O)O; ξDab = NCCC(N)C(=O)O; Sar = CNCC(=O)O

These compounds were tested against T1, PD-1/PD-L1 interaction (PE-labeled human PD-L1-Ig binding to Jurkat cell line over-expressing human PD-1) (Homo sapiens, UniProt Q15116) (assay: Jurkat-PD-1 Cell Binding High-Content Screening Assay (CBA)). Settings: Jurkat-hPD-1 cells, PE-labeled PD-L1-Ig 20 nM final; read-out: Jurkat HPD1 PDL1 IC50.
T1 construct: expressed in transfected cells; host or cells: Jurkat
T1 sequence (Q15116 25-288): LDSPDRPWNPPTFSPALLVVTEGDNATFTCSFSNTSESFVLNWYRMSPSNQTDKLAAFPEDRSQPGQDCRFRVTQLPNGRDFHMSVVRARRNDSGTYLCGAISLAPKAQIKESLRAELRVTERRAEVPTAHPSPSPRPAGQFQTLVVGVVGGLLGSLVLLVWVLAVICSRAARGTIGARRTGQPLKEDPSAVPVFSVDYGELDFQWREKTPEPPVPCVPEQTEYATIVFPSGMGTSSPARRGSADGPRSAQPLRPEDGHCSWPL
In short: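 Binding of 20 nM (final) PE-tagged PD-L1-Ig to compound-pretreated Jurkat-hPD-1 cells was measured by high-content imaging after 1 h. Pretreatment ran 2 h at 37 °C in DMEM with 10% fetal calf serum.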

| Compound | IC50 [nM] |
| --- | --- |
| CCC(C)[C@@H]1NC(=O)[C@H](Cc2ccc(-c3ccccc3)cc2)NC(=O)[C@H](CC(C)C)NC(=O)[C@H](Cc2cccc(C)c2)NC(=O)[C@H](CC(=O)O)NC(=O)[C@H](Cc2ccc(O)cc2)NC(=O)[C@H](Cc2ccncc2)NC(=O)CSC[C@@H](C(=O)N[C@@H](CN)C(=O)NCCCCCCCCCCC(=O)O)NC(=O)[C@H](CCCN)NC(=O)[C@H](C(C)C)NC(=O)[C@H](CC(C)C)NC(=O)[C@H](CCN)NC(=O)[C@@H](C)NC(=O)[C@H](C)N(C)C1=O (stereo partly shown) [Example 2202] ({CH2CO}-[4Pal]YD[Phe(3-Me)]L[Bip][Ile(3ξ)][NMeA][dA][Dab]LV[Orn]C[Dap][Aun]-OH; thioether N-14) | 31.3 |
| Cc1cccc(C[C@@H]2NC(=O)[C@H](CC(=O)O)NC(=O)[C@H](Cc3ccc(OCC(=O)O)cc3)NC(=O)[C@H]([C@@H](C)O)NC(=O)CSC[C@@H](C(=O)NC(CCN)C(=O)NCCOCCOCC(=O)NCCCCCCCCCCC(=O)O)NC(=O)[C@H](CCC(=O)O)NC(=O)[C@H](C(C)(C)O)NC(=O)[C@H](CC3CCCCC3)NC(=O)[C@H](CCN)NC(=O)[C@@H](CC(C)C)NC(=O)[C@H](C)N(C)C(=O)[C@H](Cc3ccc(OCC(=O)O)cc3)NC(=O)[C@H](Cc3ccc(-c4ccccc4)cc3)NC(=O)[C@H](Cc3ccc(C(=O)O)cc3)NC2=O)c1 (stereo partly drawn) [Example 1423] ({CH2CO}-TY(Carboxymethyl)D[Phe(3-Me)][Phe(4-COOH)][Bip]Y(Carboxymethyl)[NMeA][dL][Dab][Cha][Val(3-OH)]EC[ξDab][AEEA][Aun]-OH; thioether N-14) | 28.1 |
| CC(C)C[C@@H]1NC(=O)[C@H](Cc2c[nH]c3ccccc23)NC(=O)[C@H](CC(=O)O)NC(=O)[C@H](Cc2ccc(O)cc2)NC(=O)[C@H](Cc2ccccc2)NC(=O)CSC[C@@H](C(=O)N[C@@H](C)C(=O)N[C@H](CCCCN)C(=O)NCCCCCCCCCCC(=O)O)NC(=O)[C@H](CO)NC(=O)[C@H](C(C)C)NC(=O)[C@H](CC(C)C)NC(=O)[C@H](CCN)NC(=O)[C@@H](CC(C)C)NC(=O)[C@H](C)N(C)C(=O)[C@H](C(C)C)NC(=O)[C@H](Cc2ccc(-c3ccccc3)cc2)NC1=O [Example 2035] ({CH2CO}-FYDWL[Bip]V[NMeA][dL][Dab]LVSCA[dK][Aun]-OH; thioether N-14) | 21.9 |
| Cc1cccc(C[C@@H]2NC(=O)[C@H](CC(=O)O)NC(=O)[C@H](Cc3ccc(C(=O)O)cc3)NC(=O)[C@H](Cc3ccncc3)NC(=O)CSC[C@@H](C(=O)N[C@@H](CCN)C(=O)NCCOCCOCC(=O)NCCCCCCCCCCCCC(=O)O)NC(=O)[C@H](CO)NC(=O)[C@H](C(C)(C)O)NC(=O)[C@H](CC3CCCCC3)NC(=O)[C@H](CCN)NC(=O)[C@@H](CC(C)C)NC(=O)[C@H](C)N(C)C(=O)[C@H](Cc3ccc(OCC(=O)O)cc3)NC(=O)[C@H](Cc3ccc(-c4ccccc4)cc3)NC(=O)[C@H](Cc3ccc(OCC(=O)O)cc3)NC2=O)c1 [Example 1434] ({CH2CO}-[4Pal][Phe(4-COOH)]D[Phe(3-Me)]Y(Carboxymethyl)[Bip]Y(Carboxymethyl)[NMeA][dL][Dab][Cha][Val(3-OH)]SC[Dab][AEEA]-{NH(CH2)12COOH}; thioether N-14) | 915 |
| CC(C)C[C@H]1NC(=O)[C@H](C)N(C)C(=O)[C@H](C(C)C)NC(=O)[C@H](Cc2ccc(-c3ccccc3)cc2)NC(=O)[C@H](C(C)C)NC(=O)[C@H](Cc2c[nH]c3ccccc23)NC(=O)[C@H](CC(=O)O)NC(=O)[C@H](Cc2ccc(OCC(=O)O)cc2)NC(=O)[C@H](CCCCNC(=N)N)NC(=O)CSC[C@@H](C(=O)N[C@@H](CCCCN)C(=O)NCCOCCOCC(=O)NCCCCCCCCCCC(=O)O)NC(=O)[C@H](CO)NC(=O)[C@H](C(C)C)NC(=O)[C@H](CC2CCCCC2)NC(=O)[C@H](CCN)NC1=O [Example 2089] ({CH2CO}-[hArg]Y(Carboxymethyl)DWV[Bip]V[NMeA][dL][Dab][Cha]VSCK[AEEA][Aun]-OH; thioether N-14) | 12.3 |
| CC(C)C[C@@H]1NC(=O)[C@H](Cc2c[nH]c3ccccc23)NC(=O)[C@H](CC(=O)O)NC(=O)[C@H](Cc2ccccc2)NC(=O)[C@H](Cc2ccc(O)cc2)NC(=O)CSC[C@@H](C(=O)N[C@@H](CCCCN)C(=O)NCCOCCOCC(=O)NCCCCCCCCCCC(=O)O)NC(=O)[C@H](CO)NC(=O)[C@H](C(C)C)NC(=O)[C@H](CC2CCCCC2)NC(=O)[C@H](CCN)NC(=O)[C@@H](CC(C)C)NC(=O)[C@H](C)N(C)C(=O)[C@H](C(C)C)NC(=O)[C@H](Cc2ccc(-c3ccccc3)cc2)NC1=O [Example 2097] ({CH2CO}-YFDWL[Bip]V[NMeA][dL][Dab][Cha]VSCK[AEEA][Aun]-OH; thioether N-14) | 94.8 |
| CCC(C)[C@@H]1NC(=O)[C@H](Cc2ccc(-c3ccccc3)cc2)NC(=O)[C@H](CC(C)C)NC(=O)[C@H](Cc2c[nH]c3ccccc23)NC(=O)[C@H](CC(=O)O)NC(=O)[C@H](Cc2ccc(OCC(=O)O)cc2)NC(=O)[C@H](C(C)O)NC(=O)CSC[C@@H](C(=O)NCCOCCOCC(=O)N[C@@H](CCCN)C(=O)NCCCCCCCCCCC(=O)O)NC(=O)[C@H](CO)NC(=O)[C@H](C(C)C)NC(=O)[C@H](CC(C)C)NC(=O)[C@H](CC(N)=O)NC(=O)[C@@H](CC(C)C)NC(=O)[C@H](C)N(C)C1=O (stereo partly drawn) [Example 2052] ({CH2CO}-[Thr(3ξ)]Y(Carboxymethyl)DWL[Bip][Ile(3ξ)][NMeA][dL]NLVSC[AEEA][Orn][Aun]-OH; thioether N-14) | 79.1 |
| Cc1cccc(C[C@@H]2NC(=O)[C@H](CC(=O)O)NC(=O)[C@H](Cc3ccc(OCC(=O)O)cc3)NC(=O)[C@H](CN)NC(=O)CSC[C@@H](C(=O)NCCNCCNCC(=O)N[C@@H](CCN)C(=O)NCCCCCCCCCCC(=O)O)NC(=O)[C@H](CO)NC(=O)[C@H](C(C)C)NC(=O)[C@H](CC(C)C)NC(=O)[C@H](CC(N)=O)NC(=O)[C@@H](CC(C)C)NC(=O)[C@H](C)N(C)C(=O)[C@H](C(C)C)NC(=O)[C@H](Cc3ccc(-c4ccccc4)cc3)NC(=O)[C@H](CC(C)C)NC2=O)c1 [Example 1063] ({CH2CO}-[Dap]Y(Carboxymethyl)D[Phe(3-Me)]L[Bip]V[NMeA][dL]NLVSC-X4; thioether N-14) | 27.9 |

Other lines, results leading:

| IC50 [nM] | Compound |
| --- | --- |
| 18 | CC(C)C[C@@H]1NC(=O)[C@H](Cc2c[nH]c3ccccc23)NC(=O)[C@H](CC(=O)O)NC(=O)[C@H](Cc2ccc(C(=O)O)cc2)NC(=O)[C@H](Cc2ccc(OCC(=O)O)cc2)NC(=O)CSC[C@@H](C(=O)N[C@@H](CCCN)C(=O)NCCOCCOCC(=O)NCCCCCCCCCCC(=O)O)NC(=O)[C@H](CO)NC(=O)[C@H](C(C)C)NC(=O)[C@H](CC2CCCCC2)NC(=O)[C@H](CCN)NC(=O)[C@@H](CC2CC2)NC(=O)[C@H](C)N(C)C(=O)[C@H](C(C)C)NC(=O)[C@H](Cc2ccc(-c3ccccc3)cc2)NC1=O [Example 1248] ({CH2CO}-Y(Carboxymethyl)[Phe(4-COOH)]DWL[Bip]V[NMeA][dAla(cPr)][Dab][Cha]VSC[Orn][AEEA][Aun]-OH; thioether N-14) |
| 11.6 | CC[C@H](C)[C@@H]1NC(=O)[C@H](Cc2cccc(C)c2)NC(=O)[C@H](CC(=O)O)NC(=O)[C@H](Cc2ccc(C(=O)O)cc2)NC(=O)[C@H](CCN)NC(=O)CSC[C@@H](C(=O)N[C@@H](CCN)C(=O)NCCCCCCCCCCC(=O)O)NC(=O)[C@H](CO)NC(=O)[C@H](C(C)(C)O)NC(=O)[C@H](CC2CCCCC2)NC(=O)[C@H](CCN)NC(=O)[C@@H](CC(C)C)NC(=O)[C@H](C)N(C)C(=O)[C@H](Cc2ccc(OCC(=O)O)cc2)NC(=O)[C@H](Cc2ccc(-c3ccccc3)cc2)NC1=O [Example 1299] ({CH2CO}-[Dab][Phe(4-COOH)]D[Phe(3-Me)]I[Bip]Y(Carboxymethyl)[NMeA][dL][Dab][Cha][Val(3-OH)]SC[Dab][Aun]-OH; thioether N-14) |
| 11.9 | Cc1cccc(C[C@@H]2NC(=O)[C@H](CC(=O)O)NC(=O)[C@H](Cc3ccc(OCC(=O)O)cc3)NC(=O)[C@H](CCCNC(=N)N)NC(=O)CSC[C@@H](C(=O)N[C@@H](CCN)C(=O)NCCCCCCCCCCC(=O)O)NC(=O)[C@H](CCC(N)=O)NC(=O)[C@H](C(C)C)NC(=O)[C@H](CC3CCCCC3)NC(=O)[C@H](CCN)NC(=O)[C@@H](CC(C)C)NC(=O)[C@H](C)N(C)C(=O)[C@H](Cc3ccc(O)cc3)NC(=O)[C@H](Cc3ccc(-c4ccccc4)cc3)NC(=O)[C@H](C(C)C)NC2=O)c1 [Example 2269] ({CH2CO}-RY(Carboxymethyl)D[Phe(3-Me)]V[Bip]Y[NMeA][dL][Dab][Cha]VQC[Dab][Aun]-OH; thioether N-14) |
| 28.1 | CC(C)C[C@@H]1NC(=O)[C@H](Cc2c[nH]c3ccccc23)NC(=O)[C@H](CC(=O)O)NC(=O)[C@H](Cc2ccncc2)NC(=O)[C@H](Cc2ccc(OCC(=O)O)cc2)NC(=O)CSC[C@@H](C(=O)N[C@@H](CCN)C(=O)NCCCCCCCCCCC(=O)O)NC(=O)[C@H]([C@@H](C)O)NC(=O)[C@H](C(C)C)NC(=O)[C@H](CC2CCCCC2)NC(=O)[C@H](CCN)NC(=O)[C@@H](CC(C)C)NC(=O)[C@H](C)N(C)C(=O)[C@H](Cc2ccc(O)cc2)NC(=O)[C@H](Cc2ccc(-c3ccccc3)cc2)NC1=O [Example 1325] ({CH2CO}-Y(Carboxymethyl)[4Pal]DWL[Bip]Y[NMeA][dL][Dab][Cha]VTC[Dab][Aun]-OH; thioether N-14) |
| 260 | CC(=O)NCCCC[C@@H]1NC(=O)[C@H](C(C)C)NC(=O)[C@H](CC2CCCCC2)NC(=O)[C@H](CCN)NC(=O)[C@@H](CC(C)C)NC(=O)[C@H](C)N(C)C(=O)[C@H](Cc2ccc(O)cc2)NC(=O)[C@H](Cc2ccc(-c3ccccc3)cc2)NC(=O)[C@H](C(C)C)NC(=O)[C@H](Cc2cccc(C)c2)NC(=O)[C@H](CC(=O)O)NC(=O)[C@H](Cc2ccc(OCC(=O)O)cc2)NC(=O)[C@H](CC(N)=O)NC(=O)CSC[C@@H](C(=O)N(C)CC(=O)NCCCCCCCCCCC(=O)O)NC1=O [Example 2271] ({CH2CO}-NY(Carboxymethyl)D[Phe(3-Me)]V[Bip]Y[NMeA][dL][Dab][Cha]VK(Ac)C[Sar][Aun]-OH; thioether N-14) |
